Measurements from ChEMBL document CHEMBL1909585 (Bioorg Med Chem Lett, 2011).

Key:
[1] = biological target: T1, Tyrosinase (Agaricus bisporus, UniProt O42713)
T1 sequence (O42713 whole entry): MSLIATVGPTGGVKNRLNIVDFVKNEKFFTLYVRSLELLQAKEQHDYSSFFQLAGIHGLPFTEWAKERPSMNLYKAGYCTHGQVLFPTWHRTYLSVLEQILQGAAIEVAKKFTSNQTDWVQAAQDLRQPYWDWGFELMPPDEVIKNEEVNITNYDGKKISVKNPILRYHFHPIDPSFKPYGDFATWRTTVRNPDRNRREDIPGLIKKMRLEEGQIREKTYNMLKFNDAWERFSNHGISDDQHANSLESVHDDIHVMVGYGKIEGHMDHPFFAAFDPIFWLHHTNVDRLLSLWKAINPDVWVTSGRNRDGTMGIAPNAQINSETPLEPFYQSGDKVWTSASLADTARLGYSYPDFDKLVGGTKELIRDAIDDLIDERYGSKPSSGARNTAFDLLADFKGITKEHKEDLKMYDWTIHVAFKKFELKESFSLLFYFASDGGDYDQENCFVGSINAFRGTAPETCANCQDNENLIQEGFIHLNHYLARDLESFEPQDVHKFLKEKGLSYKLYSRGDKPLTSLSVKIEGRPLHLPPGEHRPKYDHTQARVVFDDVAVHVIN
Description: Inhibition of mushroom tyrosinase activity using L-tyrosine as substrate by spectrometric analysis

[2] = system: B16; assay: cells; details: Mus musculus, B16, 72 h, read-out: INH
Description: Inhibition of alpha-MSH -stimulated melanogenesis in mouse B16 cells assessed as melanin release at 10 uM after 72 hrs by spectrometric analysis

[3] = system: B16; assay: cells; details: Mus musculus, B16, 72 h
Description: Inhibition of alpha-MSH -stimulated melanogenesis in mouse B16 cells assessed as melanin release after 72 hrs by spectrometric analysis

SMILES | IC50 [1] | IC50 [3] | inhibition at 10 µM [2]
NC(=S)NCCc1ccccc1 | > 100 µM |  | 
NC(=S)NCCCc1ccccc1 | 64.8 µM |  | 
Cc1ccc(NC(N)=S)cc1 | 1.4 µM |  | 
CC(C)(C)c1ccc(NC(N)=S)cc1 | 1.7 µM |  | 
Cc1cccc(NC(N)=S)c1 | 0.6 µM |  | 
Cc1ccccc1NC(N)=S | 0.84 µM |  | 
CNC(=S)Nc1ccccc1 | > 100 µM | 35 µM | 30%
Cc1ccc(NC(=S)Nc2ccccc2)cc1 | > 100 µM | 6.3 µM | 79%
S=C(Nc1ccccc1)NC1CCCCC1 | > 100 µM | 2.4 µM | > 100%
Oc1ccc(N/C(S)=N/c2ccccc2)cc1 | > 100 µM | 20.7 µM | 24%

Second part, led by results:

IC50 [1] | IC50 [3] | SMILES | inhibition at 10 µM [2]
27.1 µM |  | CCc1ccccc1NC(N)=S | 
25.4 µM |  | NC(=S)NCc1ccccc1 | 
0.8 µM |  | CCc1ccc(NC(N)=S)cc1 | 
> 100 µM |  | CC(C)(C)c1ccccc1NC(N)=S | 
> 100 µM |  | S=C1NCc2ccccc2N1 | 
> 100 µM | 2.2 µM | S=C(NCCc1ccccc1)Nc1ccccc1 | > 100%
> 100 µM | 1.8 µM | S=C(NCCCc1ccccc1)Nc1ccccc1 | > 100%
> 100 µM | 8.2 µM | COc1ccc(NC(S)=Nc2ccccc2)cc1 | 59%
> 100 µM | 3.4 µM | S=C(Nc1ccccc1)Nc1ccc(Cl)cc1 | > 100%
> 100 µM | 4.7 µM | S=C(NCc1ccccc1)Nc1ccccc1 | 91%
> 100 µM | 19.6 µM | CC(C)N(C(=S)Nc1ccccc1)C(C)C | 30%
> 100 µM |  | Cc1ccc2c(c1)CN(CCc1ccccc1)C(=S)N2 | 
